# How the values were obtained:
# [1] = Thermodynamic solubility of the compound after 24 hrs at pH 7.4; format: physicochemical; conditions: buffer, read-out: Therm_solubility
# [2] = organism: Rattus norvegicus; experiment: Unbound clearance in rat; format: ADME, organism-based; conditions: in vivo
# [3] = molecular target: T1, Diacylglycerol O-acyltransferase 1 (Homo sapiens, UniProt O75907); experiment: Inhibition of human DGAT1
# T1 sequence (O75907 whole entry): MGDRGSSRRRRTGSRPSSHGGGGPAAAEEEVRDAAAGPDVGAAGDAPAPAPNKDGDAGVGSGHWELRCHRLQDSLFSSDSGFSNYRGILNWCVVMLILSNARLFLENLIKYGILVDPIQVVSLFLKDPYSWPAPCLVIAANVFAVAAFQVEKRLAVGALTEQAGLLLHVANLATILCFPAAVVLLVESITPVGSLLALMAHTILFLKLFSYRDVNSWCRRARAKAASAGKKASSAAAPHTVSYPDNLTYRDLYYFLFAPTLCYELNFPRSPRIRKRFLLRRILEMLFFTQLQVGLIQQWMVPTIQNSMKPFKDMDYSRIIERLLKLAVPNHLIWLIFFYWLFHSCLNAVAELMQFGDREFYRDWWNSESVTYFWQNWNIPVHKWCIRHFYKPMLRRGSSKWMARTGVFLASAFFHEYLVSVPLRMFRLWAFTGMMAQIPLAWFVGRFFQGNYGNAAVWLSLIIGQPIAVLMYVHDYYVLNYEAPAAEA
# [4] = Lipophilicity, logD of the compound; format: physicochemical; conditions: octanol/water
# [5] = organism: Canis familiaris; experiment: Unbound clearance in dog; format: ADME, organism-based, Canis lupus familiaris; conditions: in vivo
# [6] = Clearance in dog; format: ADME, organism-based, Canis lupus familiaris; conditions: in vivo
# [7] = Clearance in rat; format: ADME, organism-based; conditions: in vivo
# [8] = tested on: Hepatocyte; experiment: Intrinsic clearance in human hepatocytes; format: ADME, cell-based
# [9] = Apparent permeability in MDCK cells assessed as permeability from apical to basolateral side; format: ADME, cell-based, Canis lupus familiaris; conditions: dog
# [10] = molecular target: T2, Sterol O-acyltransferase 1 (Homo sapiens, UniProt P35610); experiment: Inhibition of human ACAT1
# T2 sequence (P35610 whole entry): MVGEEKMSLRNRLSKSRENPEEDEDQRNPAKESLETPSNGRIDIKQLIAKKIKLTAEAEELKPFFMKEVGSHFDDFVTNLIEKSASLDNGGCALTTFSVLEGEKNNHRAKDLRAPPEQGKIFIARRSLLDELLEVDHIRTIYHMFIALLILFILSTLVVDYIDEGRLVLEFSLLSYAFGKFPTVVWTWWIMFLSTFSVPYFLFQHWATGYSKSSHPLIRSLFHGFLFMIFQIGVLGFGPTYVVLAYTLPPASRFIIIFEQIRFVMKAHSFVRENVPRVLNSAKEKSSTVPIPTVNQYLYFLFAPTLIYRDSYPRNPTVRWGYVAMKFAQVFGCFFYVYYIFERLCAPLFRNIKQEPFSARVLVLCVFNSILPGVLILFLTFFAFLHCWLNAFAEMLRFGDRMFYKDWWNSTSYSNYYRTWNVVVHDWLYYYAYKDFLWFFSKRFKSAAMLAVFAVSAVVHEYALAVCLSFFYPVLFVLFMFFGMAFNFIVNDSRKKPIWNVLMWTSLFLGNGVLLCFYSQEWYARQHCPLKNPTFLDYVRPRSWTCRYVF
# [11] = Oral bioavailability in rat; format: ADME, organism-based; conditions: in vivo
# [12] = Oral bioavailability in dog; format: ADME, organism-based, Canis lupus familiaris; conditions: in vivo
# [13] = Apparent permeability in human Caco2 cells assessed as permeability from apical to basolateral side; format: ADME, cell-based; conditions: Caco-2
# [14] = molecular target: T1, Diacylglycerol O-acyltransferase 1; experiment: Inhibition of DGAT1 in human HuTu80 cells assessed as reduction in triglyceride levels; format: cell-based
# [15] = molecular target: Voltage-gated inwardly rectifying potassium channel KCNH2 (Homo sapiens, UniProt Q12809); experiment: Inhibition of human ERG
# Chain of Voltage-gated inwardly rectifying potassium channel KCNH2 (Q12809 whole entry): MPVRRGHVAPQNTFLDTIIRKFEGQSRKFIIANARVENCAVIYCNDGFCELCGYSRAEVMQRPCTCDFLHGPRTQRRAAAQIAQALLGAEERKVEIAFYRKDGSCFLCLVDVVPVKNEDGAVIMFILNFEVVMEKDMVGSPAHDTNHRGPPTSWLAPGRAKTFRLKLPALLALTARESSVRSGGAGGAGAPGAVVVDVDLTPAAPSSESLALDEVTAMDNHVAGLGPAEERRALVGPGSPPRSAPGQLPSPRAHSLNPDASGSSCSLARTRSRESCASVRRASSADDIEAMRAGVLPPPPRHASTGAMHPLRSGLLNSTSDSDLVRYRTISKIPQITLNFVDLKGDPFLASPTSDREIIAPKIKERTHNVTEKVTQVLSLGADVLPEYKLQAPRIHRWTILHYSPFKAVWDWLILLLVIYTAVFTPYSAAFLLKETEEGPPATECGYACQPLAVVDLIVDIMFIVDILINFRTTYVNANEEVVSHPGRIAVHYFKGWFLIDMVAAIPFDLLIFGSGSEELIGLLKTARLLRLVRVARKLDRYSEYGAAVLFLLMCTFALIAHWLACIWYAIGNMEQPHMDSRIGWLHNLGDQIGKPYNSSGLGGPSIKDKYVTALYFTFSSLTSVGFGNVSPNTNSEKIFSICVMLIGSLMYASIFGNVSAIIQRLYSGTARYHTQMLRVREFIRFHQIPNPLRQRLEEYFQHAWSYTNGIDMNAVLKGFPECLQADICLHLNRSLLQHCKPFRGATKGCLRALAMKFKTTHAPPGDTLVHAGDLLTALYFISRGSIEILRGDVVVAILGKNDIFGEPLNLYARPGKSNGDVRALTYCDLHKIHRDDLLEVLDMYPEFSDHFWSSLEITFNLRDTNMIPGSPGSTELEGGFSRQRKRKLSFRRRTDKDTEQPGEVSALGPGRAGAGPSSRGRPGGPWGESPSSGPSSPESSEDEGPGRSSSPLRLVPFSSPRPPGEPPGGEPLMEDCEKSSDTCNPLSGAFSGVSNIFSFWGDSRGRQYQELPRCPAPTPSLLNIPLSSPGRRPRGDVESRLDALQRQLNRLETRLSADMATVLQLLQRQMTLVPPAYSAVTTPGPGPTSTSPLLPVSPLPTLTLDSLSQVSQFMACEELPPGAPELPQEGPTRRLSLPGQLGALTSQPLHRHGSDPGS
# [16] = molecular target: Cytochrome P450 3A4 (Homo sapiens, UniProt P08684); experiment: Inhibition of CYP3A4 (unknown origin); format: ADME
# Chain of Cytochrome P450 3A4 (P08684 whole entry): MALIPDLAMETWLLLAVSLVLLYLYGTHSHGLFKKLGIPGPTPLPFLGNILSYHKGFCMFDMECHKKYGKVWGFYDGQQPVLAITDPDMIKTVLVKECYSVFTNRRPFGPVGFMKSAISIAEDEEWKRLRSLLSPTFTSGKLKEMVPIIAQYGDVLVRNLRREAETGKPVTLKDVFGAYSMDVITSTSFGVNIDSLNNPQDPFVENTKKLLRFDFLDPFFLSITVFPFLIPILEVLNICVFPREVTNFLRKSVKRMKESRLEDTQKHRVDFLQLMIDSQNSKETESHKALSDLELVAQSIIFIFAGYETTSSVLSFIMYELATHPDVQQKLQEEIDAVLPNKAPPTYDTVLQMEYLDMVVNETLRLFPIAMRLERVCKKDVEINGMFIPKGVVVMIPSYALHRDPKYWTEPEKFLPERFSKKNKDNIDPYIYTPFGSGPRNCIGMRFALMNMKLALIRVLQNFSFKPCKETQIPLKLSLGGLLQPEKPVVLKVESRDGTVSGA
# [17] = molecular target: Cytochrome P450 2C19 (Homo sapiens, UniProt P33261); experiment: Inhibition of CYP2C19 (unknown origin); format: ADME
# Chain of Cytochrome P450 2C19 (P33261 whole entry): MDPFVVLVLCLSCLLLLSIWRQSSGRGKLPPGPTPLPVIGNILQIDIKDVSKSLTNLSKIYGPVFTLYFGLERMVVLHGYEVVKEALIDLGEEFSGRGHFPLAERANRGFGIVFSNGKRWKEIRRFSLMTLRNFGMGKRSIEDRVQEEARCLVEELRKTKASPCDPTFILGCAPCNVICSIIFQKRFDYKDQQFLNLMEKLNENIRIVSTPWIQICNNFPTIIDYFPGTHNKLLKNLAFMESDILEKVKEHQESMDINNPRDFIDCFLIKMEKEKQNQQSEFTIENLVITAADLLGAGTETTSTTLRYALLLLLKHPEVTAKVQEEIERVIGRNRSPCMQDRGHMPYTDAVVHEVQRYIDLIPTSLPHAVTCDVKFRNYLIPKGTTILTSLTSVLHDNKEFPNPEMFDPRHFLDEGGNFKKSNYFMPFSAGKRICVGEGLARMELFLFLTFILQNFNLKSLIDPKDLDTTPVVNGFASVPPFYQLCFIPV
# [18] = molecular target: Cytochrome P450 2D6 (Homo sapiens, UniProt P10635); experiment: Inhibition of CYP2D6 (unknown origin); format: ADME
# Chain of Cytochrome P450 2D6 (P10635 whole entry): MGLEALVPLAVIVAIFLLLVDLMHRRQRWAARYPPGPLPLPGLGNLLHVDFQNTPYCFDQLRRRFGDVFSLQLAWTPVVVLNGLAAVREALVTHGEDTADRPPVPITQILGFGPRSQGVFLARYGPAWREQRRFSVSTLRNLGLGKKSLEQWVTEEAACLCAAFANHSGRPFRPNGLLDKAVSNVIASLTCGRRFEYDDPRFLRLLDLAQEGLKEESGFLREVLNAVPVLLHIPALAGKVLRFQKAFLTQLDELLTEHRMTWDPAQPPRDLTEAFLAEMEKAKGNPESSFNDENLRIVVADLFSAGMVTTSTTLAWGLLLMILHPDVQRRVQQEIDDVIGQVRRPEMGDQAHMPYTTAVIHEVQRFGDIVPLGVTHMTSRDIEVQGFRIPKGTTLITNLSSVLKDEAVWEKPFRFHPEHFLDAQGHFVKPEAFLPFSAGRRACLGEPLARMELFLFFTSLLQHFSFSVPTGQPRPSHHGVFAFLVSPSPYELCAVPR
# [19] = molecular target: T3, Cytochrome P450 1A2 (Homo sapiens, UniProt P05177); experiment: Inhibition of CYP1A2 (unknown origin); format: ADME
# T3 sequence (P05177 whole entry): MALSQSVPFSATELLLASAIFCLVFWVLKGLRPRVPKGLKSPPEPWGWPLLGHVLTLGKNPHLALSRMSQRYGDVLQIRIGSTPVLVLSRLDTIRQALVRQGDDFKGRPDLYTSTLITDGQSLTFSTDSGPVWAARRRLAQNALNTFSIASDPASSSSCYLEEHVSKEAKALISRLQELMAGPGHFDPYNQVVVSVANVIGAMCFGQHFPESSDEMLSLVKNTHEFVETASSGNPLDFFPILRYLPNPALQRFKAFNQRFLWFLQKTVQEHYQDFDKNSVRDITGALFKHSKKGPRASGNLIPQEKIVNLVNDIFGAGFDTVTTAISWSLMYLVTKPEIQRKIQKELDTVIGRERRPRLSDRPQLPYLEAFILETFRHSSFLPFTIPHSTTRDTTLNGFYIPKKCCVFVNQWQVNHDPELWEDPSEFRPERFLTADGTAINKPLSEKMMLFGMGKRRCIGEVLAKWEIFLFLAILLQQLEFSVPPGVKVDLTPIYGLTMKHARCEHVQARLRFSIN
# [20] = molecular target: T4, Diacylglycerol O-acyltransferase 2 (Homo sapiens, UniProt Q96PD7); experiment: Inhibition of human DGAT2
# T4 sequence (Q96PD7 whole entry): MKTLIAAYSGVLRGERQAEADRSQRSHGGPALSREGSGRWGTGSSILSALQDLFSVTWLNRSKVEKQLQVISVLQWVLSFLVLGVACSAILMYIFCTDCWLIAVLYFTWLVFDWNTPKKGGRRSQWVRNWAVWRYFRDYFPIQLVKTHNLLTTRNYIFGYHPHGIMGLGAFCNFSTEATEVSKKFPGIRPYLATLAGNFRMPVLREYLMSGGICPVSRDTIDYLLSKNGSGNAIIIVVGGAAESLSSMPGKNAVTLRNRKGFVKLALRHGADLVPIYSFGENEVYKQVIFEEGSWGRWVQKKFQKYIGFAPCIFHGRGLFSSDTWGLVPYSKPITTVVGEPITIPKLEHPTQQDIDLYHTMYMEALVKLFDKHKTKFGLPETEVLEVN
# [21] = organism: Rattus norvegicus; experiment: Reduction in circulating plasma triglyceride levels in rat by oral lipid tolerance test; format: functional, organism-based
# [22] = molecular target: Cytochrome P450 2C9 (Homo sapiens, UniProt P11712); experiment: Inhibition of CYP2C9 (unknown origin); format: ADME
# Chain of Cytochrome P450 2C9 (P11712 whole entry): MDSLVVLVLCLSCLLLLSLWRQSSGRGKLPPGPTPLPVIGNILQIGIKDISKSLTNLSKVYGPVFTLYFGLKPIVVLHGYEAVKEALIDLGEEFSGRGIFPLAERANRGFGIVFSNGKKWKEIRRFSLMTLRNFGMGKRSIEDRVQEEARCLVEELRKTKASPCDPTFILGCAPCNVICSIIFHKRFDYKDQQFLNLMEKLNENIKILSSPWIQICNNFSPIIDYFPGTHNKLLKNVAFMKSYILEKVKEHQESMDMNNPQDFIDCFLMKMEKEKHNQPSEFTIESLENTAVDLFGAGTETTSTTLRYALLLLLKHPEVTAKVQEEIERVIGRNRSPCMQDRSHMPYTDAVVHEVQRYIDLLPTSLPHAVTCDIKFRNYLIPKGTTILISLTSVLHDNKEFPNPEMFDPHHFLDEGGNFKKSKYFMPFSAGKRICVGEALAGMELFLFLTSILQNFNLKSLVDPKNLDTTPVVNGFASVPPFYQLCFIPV
# [23] = molecular target: T5, Diacylglycerol O-acyltransferase 1 (Rattus norvegicus, UniProt Q9ERM3); experiment: Inhibition of DGAT1 in rat microsomes
# T5 sequence (Q9ERM3 whole entry): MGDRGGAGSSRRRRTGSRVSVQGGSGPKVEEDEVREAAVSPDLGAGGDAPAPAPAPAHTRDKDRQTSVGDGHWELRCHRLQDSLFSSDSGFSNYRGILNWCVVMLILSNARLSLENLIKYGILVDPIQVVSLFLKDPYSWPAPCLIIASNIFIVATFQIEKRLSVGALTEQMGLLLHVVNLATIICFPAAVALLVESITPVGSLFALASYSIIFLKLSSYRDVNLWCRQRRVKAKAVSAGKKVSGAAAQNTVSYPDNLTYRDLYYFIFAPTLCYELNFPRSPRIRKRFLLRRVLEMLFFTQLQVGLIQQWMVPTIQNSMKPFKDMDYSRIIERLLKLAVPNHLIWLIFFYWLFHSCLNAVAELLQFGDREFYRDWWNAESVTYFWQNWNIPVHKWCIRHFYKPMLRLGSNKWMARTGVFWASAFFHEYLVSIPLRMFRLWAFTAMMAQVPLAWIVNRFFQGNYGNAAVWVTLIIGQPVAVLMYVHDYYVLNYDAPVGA
# [24] = organism: Rattus norvegicus; experiment: Reduction in circulating plasma triglyceride levels in rat by oral lipid tolerance test by PK/PD analysis; format: functional, organism-based
# [25] = tested on: Plasma; experiment: Fraction unbound in rat plasma; format: ADME, cell-free
SMILES,solubility thermodynamic at 24 h [1] [µM],CL free [2] [L/h/kg],IC50 [3] [µM],logD [4],CL free [5] [L/h/kg],clearance [6] [L/h/kg],clearance [7] [L/h/kg],Intrinsic clearance (CLint) [8] [µL/min/mg],Papp A→B [9] [nm/s],IC50 [10] [µM],bioavailability [11] [%],bioavailability [12] [%],further results
O=C(Nc1ccc(O[C@H]2CC[C@@H](C(=O)O)CC2)c(F)c1)c1nnc(Nc2cc(F)c(F)cc2F)o1,11,,,2.3,,,,,,,,,
O=C(Nc1ccc(O[C@H]2CC[C@@H](C(=O)O)CC2)cc1)c1nnc(Nc2ccc(F)c(F)c2)o1,3,,0.004,,,,,,,1.1,,,
O=C(Nc1ccc(O[C@H]2CC[C@@H](C(=O)O)CC2)cc1)c1nnc(Nc2ccc(F)cc2)o1,5,,0.005,1.2,,,,,,1.8,,,
O=C(Nc1ccc(O[C@H]2CC[C@@H](C(=O)O)CC2)cc1F)c1nnc(Nc2cc(F)c(F)cc2F)o1,69,12,0.003,1.9,102,0.39,0.024,< 2,,0.31,85,76,Papp A→B [13]: 330 nm/s
O=C(Nc1cnc(O[C@H]2CC[C@@H](C(=O)O)CC2)cc1F)c1nnc(Nc2cc(F)c(F)cc2F)o1,240,,0.006,1.6,,,,,,1.3,,,
O=C(O)C[C@H]1CC[C@@H](Oc2ccc(NC(=O)c3nnc(Nc4ccc(F)c(F)c4)o3)cn2)CC1,4,13.8,0.007,2.2,6,0.138,0.042,< 2,51,1.5,82,35,IC50 [14]: 0.004 µM; IC50 [15]: > 30 µM; IC50 [16]: > 10 µM; IC50 [17]: > 10 µM; IC50 [18]: > 10 µM; IC50 [19]: > 10 µM; IC50 [20]: 28 µM; inhibition [21]: Dose-dependent effect; IC50 [22]: > 10 µM; IC50 [23]: 0.0009 µM; IC50 [24]: 0.0002 µM
N#Cc1ccc(Nc2nnc(C(=O)Nc3ccc(O[C@H]4CC[C@@H](C(=O)O)CC4)cc3)o2)cc1,,,0.018,1.4,,,,,,14.3,,,
O=C(O)c1cccc(Oc2ccc(NC(=O)c3nnc(Nc4ccc(F)c(F)c4)o3)cc2)c1,6,,,2.3,,,,< 22,,,,,Fu [25]: < 0.01%
O=C(Nc1ccc(O[C@H]2CC[C@H](C(=O)O)CC2)cc1F)c1nnc(Nc2cc(F)c(F)cc2F)o1,13,,0.015,1.8,,,,,,6.5,,,
O=C(Nc1ccc(O[C@H]2CC[C@H](C(=O)O)CC2)cc1)c1nnc(Nc2cc(F)c(F)cc2F)o1,27,,,1.9,,,,,,,,,
O=C(Nc1ccc(O[C@H]2CC[C@@H](C(=O)O)CC2)cc1)c1nnc(Nc2cc(F)c(F)cc2F)o1,43,28.2,,1.9,55.2,0.66,0.066,< 2,110,,115,23,Fu [25]: 0.4%

# Continued, in another order:
solubility thermodynamic at 24 h [1] [µM],CL free [2] [L/h/kg],IC50 [3] [µM],logD [4],CL free [5] [L/h/kg],clearance [6] [L/h/kg],clearance [7] [L/h/kg],Intrinsic clearance (CLint) [8] [µL/min/mg],Papp A→B [9] [nm/s],IC50 [10] [µM],bioavailability [11] [%],bioavailability [12] [%],SMILES,further results
15,36,0.003,1.9,18,0.306,0.216,< 2,160,4.8,,,O=C(Nc1ccc(O[C@H]2CC[C@@H](C(=O)O)CC2)nc1F)c1nnc(Nc2ccc(F)c(F)c2)o1,
49,44.4,0.005,1.9,7.8,0.282,0.444,< 2,20,6.5,33,60,O=C(Nc1ccc(O[C@H]2CC[C@@H](C(=O)O)CC2)nc1)c1nnc(Nc2ccc(F)c(F)c2)o1,
2200,18,0.004,1.8,12,0.276,0.108,< 2,150,1.1,100,61,O=C(Nc1ccc(O[C@H]2CC[C@@H](C(=O)O)CC2)nc1F)c1nnc(Nc2cc(F)c(F)cc2F)o1,
23,,0.005,1.4,,,,,11,5.6,,,O=C(O)c1ccc(Oc2ccc(NC(=O)c3nnc(Nc4ccc(F)c(F)c4)o3)cn2)cc1,
2,,,,,,,,,,,,O=C(O)C[C@H]1CC[C@H](c2ccc(NC(=O)c3nnc(Nc4ccc(F)c(F)c4)o3)cc2)CC1,

# Source: ChEMBL document CHEMBL3132759, “Design and synthesis of a novel series of cyclohexyloxy-pyridyl derivatives as inhibitors of diacylglycerol acyl transferase 1” (Medchemcomm, 2013)
